Columns and labels:
[1] = Physical stability of the crystal form on exposure to ambient conditions or elevated humidity; format: physicochemical
[2] = Dynamic Vapor Sorption (DVS) analysis; format: physicochemical; details: between 0-90% relative humidity, 25° C.
Method: Dynamic Vapor Sorption (DVS). DVS experiments were conducted on a Surface Measurement Systems DVS-HT at 25° C. The instrument was operated in step mode and the relative humidity was increased in 10% RH increments from 40% RH to 90% RH, then decreased from 90% RH to 0% RH, then increased from 0% RH to 90% RH, then decreased from 90% RH to 0% RH. An extra step at 75% RH was included in each cycle. The mass equilibrium criterion was set at 0.005% change in mass over time (dm/dt) prior to each humidity level. A minimum step time of 10 minutes and a maximum step time of 240 minutes were specified.

## [2H]C([2H])([2H])C(c1cc2nnc(-c3cc(F)ccc3F)n2nc1OCc1ncnn1C)(C([2H])([2H])[2H])C([2H])([2H])[2H] [Form 2, 7-(tert-Butyl-d9)-3-(2,5-difluorophenyl)-6-((1-methyl-1H-1,2,4-triazol-5-yl)methoxy)-[1,2,4]triazolo[4,3-b]pyridazine]
[1]; 75% or 95% RH, 5 days
  physical stability at elevated humidity (75% or 95% RH): physically stable
[1]; 75-97% relative humidity, five days
  physical stability at 75-97% relative humidity: physically stable
[1]; ambient conditions, at least two weeks
  physical stability at ambient conditions: physically stable
[2]
  weight gain by DVS: up to 2.5 % wt

From patent US20150119398A1, “FORM 2 POLYMORPH OF 7-(TERT-BUTYL-D9)-3-(2,5-DIFLUOROPHENYL)-6-((1-METHYL-1H-1,2,4-TRIAZOL-5-YL)METHOXY)-[1,2,4]TRIAZOLO[4,3-B]PYRIDAZINE” (Concert Pharmaceuticals Inc., priority 2012, published 2015)
